Assay results from patent US20260258333A1, “MULTI-ORGAN "BODY ON A CHIP" APPARATUS UTILIZING A COMMON MEDIA” (Wake Forest University Health Sciences, priority 2016, published 2026).
Like-named read-outs stand apart in the source and are kept apart here.

Tests used:
[1] = test system: liver organoids; assay: Liver on a chip: acetaminophen toxicity and N-acetyl-L-cysteine countermeasure; assay type: cell-based, human; settings: for albumin and urea output into media: APAP 1 or 10 mM, NAC 20 mM with 10 mM APAP
Experimental: FIG. 13. […] Viability as determined by LIVE/DEAD staining on day 14. Organoids were exposed to panel a) a 0 mM APAP control, panel b) 1 mM APAP, panel c) 10 mM APAP, or panel d) 10 mM APAP with 20 mM N-acetyl-L-cysteine. Green—Calcein AM-stained viable cells; Red—Ethidium homodimer-stained dead cells. […] Quantification of panel e) human albumin, panel f) urea, panel g) lactate dehydrogenase, and panel h) alpha-GST. […] Statistical significance: *p<0.05 between control and APAP; # p<0.05 APAP+NAC and APAP.

[2] = test system: cardiac organoids
Experimental: FIG. 14. […] Panel a) Beating output under baseline conditions, from which beating rate is determined. Panels b-e) Change in cardiac organoid beat rate resulting from exposure to panel b) isoproterenol, or panel c) quinidine. Panels d-e) Cardiac organoid response to epinephrine and propranolol.
FIG. 19. Assessment of cardiac organoid beating kinetics in response to panel a) astemizole, panel b) pergoglide, and panel c) terodiline.
It should be noted that most drugs that are recalled for causing cardiac toxicity are not actually recalled due to cardiac cell death, but rather for causing changes in cardiac function, such as beating kinetics. While 2D cardiomyocyte cultures can maintain beating activity, consistency and reproducibility can be difficult to maintain. […] These facts make it more difficult to compare beating kinetics between these cell model types.

[3] = marketed use in patients; cited from earlier work
[4] = test system: cardiac organoids, 2D iPS-derived cardiomyocytes, 2D C2C12
Excerpt: (§4) Comparison of ATP activity in response to drug screens of FDA-recalled drugs between 3D liver and cardiac organoids, 2D hepatocyte and cardiomyocyte cultures, and 2D HepG2 and C2C12 cell line cultures. Panels a-d) ATP activity of liver organoids, 2D primary human hepatocytes, and 2D hepG2 cell line cultures in response to panel a) troglitazone, panel b) mibefradil, panel c) bromfenac, and panel d) tielinic acid. Panels e-i) ATP activity of cardiac organoids, 2D iPS-derived cardiomyocytes, and 2D C2C12 cell line cultures in response to panel e) astemizole, panel f) pergoglide, panel g) terodiline, panel h) rofecoxib, and panel i) valdecoxib. Comparisons between groups were normalized to the no drug baseline ATP activity levels. Statistical significance: *p<0.05, 3D organoids versus both 2D cultures; #p<0.05, 2D hepatocytes/cardiomyocytes versus both 3D organoids and 2D cell lines; $ p<0.05, 2D cell line versus both 3D organoids and 2D hepatocytes/cardiomyocytes.
(§5) In comparison to 3D organoid systems, we also screened these drugs using 2D primary hepatocyte and iPS cardiomyocyte cultures, and 2D hepg2 hepatoma cells and C2C12 myoblast cultures. […] In order to allow comparisons between the different cell model form factors, which employed different numbers of cells (liver organoids—1500; cardiac organoids—2500; 2D hepatocytes—20000; 2D cardiomyocytes—12500; HepG2 and C2C12 cultures—20000), ATP levels were normalized to no drug baseline levels.

[5] = test system: liver organoids, 2D primary human hepatocytes, 2D HepG2; assay: ATP activity, 3D liver organoids versus 2D hepatocyte and 2D HepG2 cultures; assay type: cell-based; settings: ATP normalized to no drug baseline
Excerpt: as §4, §5

[6] = test system: liver organoids; assay: LIVE/DEAD staining of 3D liver organoids, FDA-recalled drug screen; assay type: cell-based, human; settings: increasing drug concentration (troglitazone 0-3 μM, mibefradil 0-100 μM)
Excerpt: Unfortunately, many drugs have made it through preclinical studies and clinical trials, after which they existed on the market, for years in some cases, before being recalled by the Food and Drug Administration (FDA) for having toxic effects in humans. […] These include liver toxins troglitazone, mibefradil, bromfenac, and tienilic acid, as well as cardiac toxins, astemizole, pergoglide, terodiline, rofecoxib, and valdecoxib.

[7] = test system: cardiac organoids, 2D iPS-derived cardiomyocytes, 2D C2C12; assay: ATP activity, 3D cardiac organoids versus 2D iPS cardiomyocyte and 2D C2C12 cultures
Excerpt: as §4, §5

[8] = test system: liver, cardiac, lung, testis, and brain organoids
Experimental: Aim of Experiment: To assess dependence of multi organoid toxicity on liver organoid metabolic function.
At this point, the liver modules were removed from half of the platforms. Capecitabine (20 μM) was administered to all platforms after which viability was assessed through live/dead staining or cardiac beating behavior after 7 days of exposure (day 14 of total study).

[9] = test system: liver, cardiac, lung, testis, and brain organoids; remark: listed apart in the source
Experimental: A microfluidic platform having a miniaturized footprint and fluid volume was prepared and it was assessed whether the same complex drug studies are possible on this platform.
As with the full-scale platform described in Example 4, five tissue constructs were initiated containing liver, cardiac, lung, testis, and brain organoids and maintained for 7 days prior to the start of the drug study. At this point, the liver modules were removed from half of the platforms. Capecitabine (20 uM) was administered to all platforms after which viability was assessed through live/dead staining or cardiac beating behavior after 7 days of exposure (day 14 of total study).

[10] = test system: cardiac organoids downstream of liver construct
Excerpt: (§1) In the human body, organs interact with one another in complex ways. […] The modular nature of the fluidic system was employed to construct such a platform. Real-time visual monitoring of cardiac organoids was achieved using an onboard LED and camera system that was customized to integrate with the cardiac construct microreactor housing (FIG. 6, panel a) ^32. This system allowed real time video capture (FIG. 6, panel b). Using custom written MatLab code with a series of MatLab functions, moving pixels in each frame were determined against time, generating a binary representation of beat propagation (FIG. 6, panel c) and plots visualizing beating rates.
(§2) Effects of epinephrine and propranolol were first tested independently with a cardiac-only system or the tandem system, before being tested jointly in both systems.
(§3) Next, the interplay between both drugs in the cardiac-only and tandem systems was assessed. […] Beating plots for each condition are depicted in FIG. 6, panels f-i.

[11] = test system: cardiac organoids; remark: listed apart in the source
Excerpt: as §1, §2, §3

[12] = test system: cardiac organoids; settings: preliminary results, FIG. 22
Experimental: Following compound exposures, organoids were assessed for viability with LIVE/DEAD staining or ATP activity.

[13] = test system: vascular endothelium (human umbilical vein endothelial cells); settings: 100 μM histamine, constant for 10 minutes; normal media about 0.54 kΩ
Excerpt: The goal of our work was to develop a highly functional microfluidic perfusion-driven six-tissue body-on-a-chip system, containing representations of liver, heart, vasculature, lung, testes, and colon (FIG. 1, panels A-B). Importantly, these individual tissue types would be constructed in modular microfluidic hardware devices, or microreactors (FIG. 1, panel B), formed by conventional polydimethyl-siloxane (PDMS) soft lithography and molding, ^11,30,31 allowing simple “plug and play” capabilities for platform initialization. […] Because of the specific individual requirements of each type of tissue model, a toolbox of biofabrication techniques was employed to create each tissue model (FIG. 1, panels C-E). Briefly, using hanging drop methodology, spherical liver organoids were formed with primary human hepatocytes, stellate cells, and Kupffer cells, spherical cardiac organoids and testes organoids were formed using human induced pluripotent stem (iPS) cells. These spherical organoids were then bioprinted (FIG. 7) into the microreactors using a liver ECM-derived bio-ink, a fibrin and gelatin bio-ink, and a hyaluronic acid (HA) and gelatin bio-ink, employing crosslinking of the hydrogel bio-inks to immobilize the organoids as larger hydrogel-organoid constructs within the perfusion system. […]

[14] = test system: vascular endothelium; settings: confluent monolayers, 100 μM histamine from 20 min, at 45 min; 50-90 RFUs before histamine
Experimental: New vascular modules were prepared with either fully confluent endothelial layers or non-confluent layers. For this experiment, liver organoids were immobilized in liver-specific bioink, as described, in the bottom chamber of the modules (FIG. 3, panel f). These were imaged in parallel to the mass transport experiment by macro-confocal microscopy, showing the endothelium on the semi-porous membrane (membrane not visible) and the 3D liver organoid below (FIG. 3, panel g). Importantly, for the mass transport experiment, the bioink also contained a soluble fluorescent dye consisting of soluble 15 kDa gelatin conjugated with Alexa Fluor 594 maleimide tags in media. Upon addition of the liver organoids, bioink, and dye in the bottom chamber of the device, devices were sealed, and experiments were initiated. Modules were maintained under 25 μL/min flow with normal media coming from a media reservoir, during which aliquots from the outlet ports were collected every 5 minutes. […] Aliquots were analyzed following the experiment for fluorescent intensity.

SMILES: CC(=O)Nc1ccc(O)cc1 [APAP, acetaminophen]
- albumin and urea output into media [1]: negatively affected
- LDH and alpha-GST in media ([1]; APAP treatment): elevated levels

SMILES: COc1ccc(CCN2CCC(Nc3nc4ccccc4n3Cc3ccc(F)cc3)CC2)cc1 [Astemizole]
- beating kinetics of 3D cardiac organoids [2]: detrimental changes in beating kinetics
- Site of Primary Toxicity [3]: Heart
- sensitivity by ATP activity, 3D cardiac organoids compared to the 2D systems [4]: significantly more sensitive

SMILES: Nc1c(CC(=O)O)cccc1C(=O)c1ccc(Br)cc1 [Bromfenac]
- Site of Primary Toxicity [3]: Liver
- sensitivity by ATP activity, 3D organoids and 2D hepatocyte cultures in comparison to 2D HepG2 cultures [5]: slightly more resistant

SMILES: COCC(=O)O[C@]1(CCN(C)CCCc2nc3ccccc3[nH]2)CCc2cc(F)ccc2[C@@H]1C(C)C [Mibefradil]
- cell death, LIVE/DEAD [6]: increases in cell death
- Site of Primary Toxicity [3]: Liver
- sensitivity by ATP activity, 3D organoids and 2D hepatocyte cultures in comparison to 2D HepG2 cultures [5]: more sensitive

SMILES: CC(=O)N[C@@H](CS)C(=O)O [NAC, N-acetyl-L-cysteine]
- viability, LIVE/DEAD staining on day 14 ([1]; 10 mM APAP with 20 mM N-acetyl-L-cysteine): rescued
- albumin and urea output into media [1]: decreases this reduction in secretion

SMILES: CCCN1C[C@H](CSC)C[C@@H]2c3cccc4[nH]cc(c34)C[C@H]21 [Pergoglide]
- beating kinetics of 3D cardiac organoids [2]: detrimental changes in beating kinetics
- Site of Primary Toxicity [3]: Heart
- sensitivity by ATP activity, 3D cardiac organoids compared to the 2D systems [4]: significantly more sensitive

SMILES: CS(=O)(=O)c1ccc(C2=C(c3ccccc3)C(=O)OC2)cc1 [Rofecoxib]
- Site of Primary Toxicity [3]: Heart
- sensitivity by ATP activity, 2D cardiomyocyte cultures compared to 3D organoids and 2D C2C12 cultures ([7]; only at low to medium drug concentrations): increased sensitivity

SMILES: CC(CC(c1ccccc1)c1ccccc1)NC(C)(C)C (centres unmarked) [Terodiline]
- beating kinetics of 3D cardiac organoids [2]: detrimental changes in beating kinetics
- Site of Primary Toxicity [3]: Heart
- sensitivity by ATP activity, 3D cardiac organoids compared to the 2D systems ([7]; only at the highest concentration of 100 μM): slightly more sensitive

SMILES: O=C(O)COc1ccc(C(=O)c2cccs2)c(Cl)c1Cl [Tienilic Acid]
- Site of Primary Toxicity [3]: Liver
- sensitivity by ATP activity, 3D organoids versus both 2D systems [5]: did not experience significantly different responses

SMILES: Cc1c(C)c2c(c(C)c1O)CCC(C)(COc1ccc(CC3SC(=O)NC3=O)cc1)O2 (centres unmarked) [Troglitazone]
- cell death, LIVE/DEAD [6]: increases in cell death
- Site of Primary Toxicity [3]: Liver

SMILES: Cc1onc(-c2ccccc2)c1-c1ccc(S(N)(=O)=O)cc1 [Valdecoxib]
- Site of Primary Toxicity [3]: Heart
- sensitivity by ATP activity, 2D cardiomyocyte cultures compared to 3D organoids and 2D C2C12 cultures [4]: increased sensitivity

SMILES: CCCCCOC(=O)Nc1nc(=O)n([C@@H]2O[C@H](C)[C@@H](O)[C@H]2O)cc1F [capecitabine]
- metabolism of the prodrug [8]: this metabolism does not occur
- metabolism of the prodrug ([8]; human, 7 days, 20 μM): metabolized into the toxic drug 5-FU
- metabolism of the prodrug [9]: this metabolism does not occur
- metabolism of the prodrug ([9]; human, 7 days, 20 uM): metabolized into the toxic drug 5-FU

SMILES: CNC[C@H](O)c1ccc(O)c(O)c1 [epinephrine]
- epinephrine concentration at which beat rate increase reaches a plateau [2]: ≥ 5 µM
- dose dependent increase in beat rate ([2]; increasing epinephrine concentration): 1 to 2 fold
- increase in BPM after epinephrine ([10]; Group 2, liver component present, 0.1 μM propranolol then 0.5 μM epinephrine): 1.25 fold
- response relative to control epinephrine-only response ([10]; Group 2, liver organoids, propranolol then epinephrine): approximately 50%
- restoration of the epinephrine-induced increase in beat rate ([10]; Group 2 conditions with 2D hepatocyte culture (1-2 million cells) in place of 3D liver organoids): failed to achieve any restoration
- increase in beating rate ([10]; epinephrine only, 0.5 μM, liver component present, p<0.05): ~30%
- increase in beating rate ([11]; epinephrine only, 0.5 μM): ~ 40%
- increase in cardiac BPM after epinephrine ([11]; experimental controls, no propranolol prior to epinephrine): 1.5 fold

SMILES: O=C(O)CNCP(=O)(O)O [glyphosate]
- ATP activity [12]: decreases in ATP activity

SMILES: NCCc1c[nH]cn1 [histamine]
- resistance across endothelium layers (TEER) [13]: approximately 0.4 kΩ
- fluorescent intensity of outlet aliquots (dye transfer) [14]: ~200 RFUs

SMILES: [Cl][Pb][Cl] [lead, lead chloride]
- ATP activity [12]: decreases in ATP activity

SMILES: CC(C)NCC(O)COc1cccc2ccccc12 (centres unmarked) [propranolol]
- beating rate after administration of 5 μM epinephrine ([2]; initial incubation with propranolol 0 to 20 μM): dose dependent decrease in beating rate
- change in beating rate ([10]; propranolol only, 0.1 μM, liver construct present): no decrease in beating rate
- effect of propranolol on response to 0.5 μM epinephrine ([11]; Group 1, no liver organoids, 0.1 μM propranolol first): successfully blocked the beta-adrenergic effects
- decrease in beating rate ([11]; propranolol only, 0.1 μM, p<0.05): ~ 10%

SMILES: O=[N+]([O-])[O-].[Tl+] [thallium, thallium nitrate]
- ATP activity [12]: decreases in ATP activity
